Tests used:
[1] = tested on: DU 145 prostate cancer cell line; assay: Anti-proliferative activity, MTS assay, DU 145; assay type: cell-based; settings: Homo sapiens, MTS assay, 2,000 cells/well, means of 2 experiments in triplicate
Text: (§1) MCF-7 breast cancer cells, a cell line with no constitutive activation of STAT3, were used as negative control. […] In addition, the anti-proliferative activities are directly proportional to the level of constitutively active STAT3 expression (Table 1).

[2] = tested on: PC3 prostate cancer cell line; assay: Anti-proliferative activity, MTS assay, PC3; assay type: cell-based; settings: MTS assay, 2,000 cells/well, means of 2 experiments in triplicate
Text: as §1

[3] = tested on: LNCaP prostate cancer cell line; assay: Anti-proliferative activity, MTS assay, LNCaP; assay type: cell-based; settings: Homo sapiens, MTS assay, 2,000 cells/well, means of 2 experiments in triplicate
Text: as §1

[4] = tested on: MCF-7 breast cancer cell line; assay: Anti-proliferative activity, MTS assay, MCF-7; assay type: cell-based
Text: as §1

[5] = tested on: STAT3; assay: STAT3-dependent luciferase reporter (pLucTKS3) in Caov-3 cells; assay type: cell-based; settings: 20 μM, 48h
Text: (§2) To screen the potential inhibitors that inhibit STAT3 's biological activity, we established Caov-3 cancer cell line that constitutively expresses active STAT3 with a stably integrated STAT3-dependent luciferase reporter construct, pLucTKS3. This construct contains multimerized STAT3 binding sites and its activation specifically depends on STAT3. We examined the effect of eight theoretical STAT3 inhibitors to inhibit STAT3-mediated production of luciferase.
(§3) According to embodiments illustrated by FIG. 3B, the clones stably transfected with pLucTKS3 STAT3-dependent luciferase reporter or SV40 luciferase reporter were treated with 20 μM of the STAT3 inhibitor for 48h and luciferase activity was measured.

[6] = tested on: SV40 promoter; assay: SV40 luciferase reporter (STAT3-independent); assay type: cell-based; settings: 20 μM, 48h
Text: as §2, §3

[7] = tested on: cyclin D1 and Bcl-XL; assay: Immunoblot of STAT3-regulated genes; assay type: cell-based; settings: 20 μM and 30 μM
[8] = tested on: STAT3; assay: Electrophoretic mobility shift assay, STAT3 DNA binding; assay type: biochemical; settings: 30 μM, 30 min, MDA-MB-435s cell nuclear extract
Text: (§4) The reaction mixtures were resolved on 8% polyacylamide gel and visualized with autoradiography.

[9] = target: T1, STAT1 (Homo sapiens, UniProt P42224); assay: Electrophoretic mobility shift assay, STAT1 DNA binding; assay type: biochemical; settings: 30 μM, MDA-MB-435s cell nuclear extract
T1 construct: endogenous in cells; host or cells: MDA-MB-435s nuclear extract
T1 sequence (P42224 1-750): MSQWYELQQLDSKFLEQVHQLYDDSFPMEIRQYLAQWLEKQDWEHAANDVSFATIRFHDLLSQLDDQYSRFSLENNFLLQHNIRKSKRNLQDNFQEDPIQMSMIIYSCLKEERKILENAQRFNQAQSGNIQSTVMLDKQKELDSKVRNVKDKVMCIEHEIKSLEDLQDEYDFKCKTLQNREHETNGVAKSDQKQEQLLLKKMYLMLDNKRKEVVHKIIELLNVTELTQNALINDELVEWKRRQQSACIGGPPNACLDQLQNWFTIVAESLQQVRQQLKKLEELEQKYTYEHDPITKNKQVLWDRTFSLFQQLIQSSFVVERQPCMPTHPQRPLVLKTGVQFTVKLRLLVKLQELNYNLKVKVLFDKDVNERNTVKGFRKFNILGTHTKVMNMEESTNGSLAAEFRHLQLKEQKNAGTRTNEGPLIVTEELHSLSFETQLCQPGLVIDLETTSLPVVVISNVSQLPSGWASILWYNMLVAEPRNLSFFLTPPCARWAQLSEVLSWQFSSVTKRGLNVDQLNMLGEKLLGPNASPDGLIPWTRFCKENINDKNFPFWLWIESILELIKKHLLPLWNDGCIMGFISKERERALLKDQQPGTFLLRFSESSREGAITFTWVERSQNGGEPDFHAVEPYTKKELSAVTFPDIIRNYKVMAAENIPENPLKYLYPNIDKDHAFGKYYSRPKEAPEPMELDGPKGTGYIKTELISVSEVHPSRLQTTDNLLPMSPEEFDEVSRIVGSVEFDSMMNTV
Text: as §4

[10] = tested on: STAT5; assay: Electrophoretic mobility shift assay, STAT5 DNA binding; assay type: biochemical; settings: 30 μM, MDA-MB-435s cell nuclear extract
Text: as §4

[11] = tested on: STAT3; assay: STAT3 dimerization, co-immunoprecipitation of STAT3-FLAG and STAT3-HA; assay type: cell-based; settings: MDA-MB-435s cells, 20 μM, 24h
Protocol: MDA-MB-435s cells were co-transfected with pCMV-STAT3-FLAG and pCMV-STAT3-HA plasmid constructs and immunoblot analyses were performed with anti-FLAG, anti-HA, and anti-STAT3, the results of which are shown in FIG. 5A. The cell lysates were then subjected to immunoprecipitation with an anti-FLAG or anti-HA antibody and immunoblot analyses were performed with anti-HA or anti-FLAG, respectively, the results of which are shown in FIG. 5B.
According to embodiments of experimental results shown in FIG. 5A, MDA-MB-435s cells were transfected with pCMV-STAT3-Flag and pCMV-STAT3-HA plasmid and the cell lysate was immunoblotted with anti-Flag, anti-HA, or anti-STAT3. According to embodiments shown in FIG. 5B, MDA-MB-435s cells were co-transfected with pCMV-STAT3-Flag and pCMV-STAT3-HA plasmids and were exposed to 20 μM of inhibitor for 24h, then cell lysate was immunoprecipitated with anti-HA or anti-Flag antibody, respectively and immunoblotted with HA, Flag, or STAT3 antibody. As shown in Lane 1 of FIG. 5B, no transfection was performed. In lane 2, untreated cells were transfected with pCMV-STAT3-Flag and pCMV-STAT3-HA plasmids.

[12] = tested on: MDA-MB-468, MDA-MB-435s, and MDA-MB-231 cell lines; assay: Apoptosis by FACS, cell lines with constitutively active STAT3; assay type: cell-based; settings: 48 h
Protocol: (§5) According to embodiments of experimental data shown in FIG. 6A, the phosphorylation of STAT3 (Tyr705) in different cell lines: lane 1 with HSF, lane 2 with MCF-7, land 3 with MDA-MB-453, lane 4 with MDA-MB-231, lane 5 with MDA-MB-435s, and lane 6 with MDA-MB-468. According to embodiments shown in FIG. 6B, cell lines were treated with STAT3 inhibitor at concentrations as indicated for 48 h, and apoptotic cells were detected with FACS.

[13] = tested on: MCF-7 and MDA-MB-453 cancer cell lines and human skin fibroblasts (HSF); assay: Apoptosis by FACS, cells lacking constitutively active STAT3; assay type: cell-based; settings: 48 h, lack constitutively active STAT3
Protocol: as §5

[14] = target: T2, JAK2 (Homo sapiens, UniProt O60674); assay: Phosphorylation of JAK2; assay type: cell-based
T2 construct: endogenous in cells
T2 sequence (O60674 whole entry): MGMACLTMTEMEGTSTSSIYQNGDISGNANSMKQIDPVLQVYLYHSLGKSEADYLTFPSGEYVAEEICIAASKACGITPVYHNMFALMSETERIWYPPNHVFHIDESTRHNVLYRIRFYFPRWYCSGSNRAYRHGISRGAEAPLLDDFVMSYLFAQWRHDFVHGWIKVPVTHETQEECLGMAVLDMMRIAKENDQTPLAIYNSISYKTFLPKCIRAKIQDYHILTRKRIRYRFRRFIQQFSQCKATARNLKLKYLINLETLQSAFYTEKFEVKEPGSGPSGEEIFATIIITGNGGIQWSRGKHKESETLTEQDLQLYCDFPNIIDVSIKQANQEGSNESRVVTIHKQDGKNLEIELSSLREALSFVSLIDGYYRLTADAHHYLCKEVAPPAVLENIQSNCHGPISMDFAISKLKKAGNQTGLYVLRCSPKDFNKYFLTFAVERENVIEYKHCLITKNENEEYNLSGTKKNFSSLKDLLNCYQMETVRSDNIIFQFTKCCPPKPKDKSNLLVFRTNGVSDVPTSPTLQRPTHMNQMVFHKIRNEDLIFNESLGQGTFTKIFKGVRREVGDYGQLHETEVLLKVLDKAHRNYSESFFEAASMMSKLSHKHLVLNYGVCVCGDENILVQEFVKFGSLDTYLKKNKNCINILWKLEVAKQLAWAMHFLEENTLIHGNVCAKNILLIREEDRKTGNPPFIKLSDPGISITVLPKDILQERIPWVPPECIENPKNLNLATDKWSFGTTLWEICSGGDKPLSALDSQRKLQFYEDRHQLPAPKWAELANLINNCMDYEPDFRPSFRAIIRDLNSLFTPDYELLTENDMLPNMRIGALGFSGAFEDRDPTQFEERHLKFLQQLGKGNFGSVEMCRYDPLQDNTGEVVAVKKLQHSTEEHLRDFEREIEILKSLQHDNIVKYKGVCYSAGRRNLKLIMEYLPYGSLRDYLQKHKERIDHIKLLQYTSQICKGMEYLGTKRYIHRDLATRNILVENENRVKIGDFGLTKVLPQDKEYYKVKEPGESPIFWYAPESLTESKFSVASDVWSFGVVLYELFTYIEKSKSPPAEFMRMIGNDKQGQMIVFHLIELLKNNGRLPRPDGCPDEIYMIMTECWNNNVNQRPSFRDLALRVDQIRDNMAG

[15] = target: T3, Src (Homo sapiens, UniProt P12931); assay: Phosphorylation of Src; assay type: cell-based
T3 construct: endogenous in cells
T3 sequence (P12931 whole entry): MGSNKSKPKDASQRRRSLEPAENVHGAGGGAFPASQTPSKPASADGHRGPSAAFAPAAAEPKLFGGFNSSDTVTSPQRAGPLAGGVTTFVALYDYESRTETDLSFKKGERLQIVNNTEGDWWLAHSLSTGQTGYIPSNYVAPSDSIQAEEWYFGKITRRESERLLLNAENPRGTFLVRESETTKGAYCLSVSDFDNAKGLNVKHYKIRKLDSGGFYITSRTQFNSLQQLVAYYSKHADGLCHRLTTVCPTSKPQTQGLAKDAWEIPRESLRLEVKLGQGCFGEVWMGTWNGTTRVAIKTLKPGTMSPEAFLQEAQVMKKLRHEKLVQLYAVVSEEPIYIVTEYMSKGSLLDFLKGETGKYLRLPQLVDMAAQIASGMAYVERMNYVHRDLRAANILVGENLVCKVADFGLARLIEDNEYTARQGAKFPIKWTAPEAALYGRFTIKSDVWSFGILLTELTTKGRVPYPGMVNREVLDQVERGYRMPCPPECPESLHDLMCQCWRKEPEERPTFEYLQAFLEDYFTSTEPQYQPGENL

[16] = tested on: AKT; assay: Phosphorylation of AKT; assay type: cell-based
[17] = tested on: ERK½; assay: Phosphorylation of ERK½; assay type: cell-based

SMILES: C[C@@H]1CC(=O)c2c(ccc3c2C(=O)c2cccc(O)c2C3=O)C1 [STA-21, deoxytetrangomycin]
- IC50 [1]: 12.2 µM
- IC50 [2]: 18.7 µM
- IC50 [3]: 30.1 µM
- IC50 ([4]; Homo sapiens, MCF7, MTS assay, 2,000 cells/well, no constitutive STAT3 activation): > 100 µM
- anti-proliferative activity in MCF-7 cells (in words) ([4]; cells with no constitutive STAT3 activation): did not show any antiproliferative activity
- reduction in luciferase activity, pLucTKS3 transfected cells [5]: ~6 fold
- luciferase activity under control of the SV40 promoter [6]: no significant difference
- expression of STAT3-regulated genes cyclin D1 and Bcl-XL [7]: inhibits the expression
- STAT3 DNA binding activity [8]: specifically blocked STAT3 DNA binding
- STAT1 DNA binding [9]: did not inhibit
- STAT5 DNA binding [10]: did not inhibit
- ability of STAT3-FLAG and STAT3-HA to dimerize [11]: significantly reduced
- increase in percentage of apoptotic cells [12]: 5-30 fold
- increase in percentage of apoptotic cells [13]: 0.5-1.2 fold
- phosphorylation of JAK2 [14]: did not inhibit
- phosphorylation of Src [15]: did not inhibit
- phosphorylation of AKT [16]: did not inhibit
- phosphorylation of ERK½ [17]: did not inhibit
